Measurements taken from ChEMBL document CHEMBL4390636, “Synthesis, spectroscopic characterization, molecular docking and theoretical studies (DFT) of N-(4-aminophenylsulfonyl)-2-(4-isobutylphenyl) propanamide having potential enzyme inhibition applications” (Bioorg Med Chem, 2019).

What was measured:
Cholinesterase [1] = biological target: T1, Cholinesterase (Homo sapiens, UniProt P06276); experiment: Inhibition of BuChE (unknown origin) using butyrylthiocholine bromide as substrate by Ellman method
[2] = Toxicity in orally dosed Wistar rat monitored every hour for 12 hrs and then every day for 14 days; type: organism-based; conditions: in vivo, po
Acetylcholinesterase [3] = biological target: T2, Acetylcholinesterase (Homo sapiens, UniProt P22303); experiment: Inhibition of AChE (unknown origin) at 0.5 mM using […] as substrate by Ellman method relative to untreated control
Cholinesterase [4] = biological target: T1, Cholinesterase; experiment: Inhibition of BuChE (unknown origin) at 0.5 mM using butyrylthiocholine bromide as substrate by Ellman method relative to untreated control
Rattus norvegicus [5] = experiment: Anti-ulcer activity in Wistar rat model of ethanol-induced gastric ulcer model assessed as ulcer area at 50 mg/kg, po dosed 1 hr before ethanol injection relative to untreated control; type: functional
[6] = biological target: T3, Polyunsaturated fatty acid 5-lipoxygenase (Homo sapiens) (UniProt P09917); experiment: Inhibition of 5-LOX (unknown origin) relative to untreated control; conditions: concentration not given here
T3 sequence (whole entry): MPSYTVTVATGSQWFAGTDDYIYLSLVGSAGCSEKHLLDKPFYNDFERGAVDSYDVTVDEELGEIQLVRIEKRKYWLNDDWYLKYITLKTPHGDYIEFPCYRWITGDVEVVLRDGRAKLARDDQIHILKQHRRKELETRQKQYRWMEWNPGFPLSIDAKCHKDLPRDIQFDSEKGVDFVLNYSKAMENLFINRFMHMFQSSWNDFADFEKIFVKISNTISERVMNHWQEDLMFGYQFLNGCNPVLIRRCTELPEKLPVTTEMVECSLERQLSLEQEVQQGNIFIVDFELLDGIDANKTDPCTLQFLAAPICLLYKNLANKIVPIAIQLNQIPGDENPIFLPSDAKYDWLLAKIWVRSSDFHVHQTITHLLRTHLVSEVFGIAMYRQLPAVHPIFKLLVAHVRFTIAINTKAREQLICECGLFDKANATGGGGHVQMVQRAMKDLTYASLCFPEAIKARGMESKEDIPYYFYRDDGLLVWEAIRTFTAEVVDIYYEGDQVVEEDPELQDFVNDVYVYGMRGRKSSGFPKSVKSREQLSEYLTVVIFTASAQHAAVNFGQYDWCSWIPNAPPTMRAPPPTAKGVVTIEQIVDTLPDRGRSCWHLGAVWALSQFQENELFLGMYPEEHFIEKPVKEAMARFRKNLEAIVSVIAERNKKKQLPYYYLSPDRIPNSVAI

Acetylcholinesterase [7] = biological target: T2, Acetylcholinesterase; experiment: Inhibition of AChE (unknown origin) using […] as substrate by Ellman method
[8] = Antioxidant activity assessed as DPPH free radical scavenging activity at 0.25 mM relative to untreated control; type: functional
[9] = Antioxidant activity assessed as DPPH free radical scavenging activity at 0.5 mM relative to untreated control; type: functional
Rattus norvegicus [10] = experiment: Anti-inflammatory activity in Wistar rat assessed as inhibition of kaolin paw edema at 50 mg/kg, po dosed 1 hr before kaolin injection and measured 4 hrs after kaolin injection relative to untreated control; type: functional

T1 sequence (P06276 whole entry): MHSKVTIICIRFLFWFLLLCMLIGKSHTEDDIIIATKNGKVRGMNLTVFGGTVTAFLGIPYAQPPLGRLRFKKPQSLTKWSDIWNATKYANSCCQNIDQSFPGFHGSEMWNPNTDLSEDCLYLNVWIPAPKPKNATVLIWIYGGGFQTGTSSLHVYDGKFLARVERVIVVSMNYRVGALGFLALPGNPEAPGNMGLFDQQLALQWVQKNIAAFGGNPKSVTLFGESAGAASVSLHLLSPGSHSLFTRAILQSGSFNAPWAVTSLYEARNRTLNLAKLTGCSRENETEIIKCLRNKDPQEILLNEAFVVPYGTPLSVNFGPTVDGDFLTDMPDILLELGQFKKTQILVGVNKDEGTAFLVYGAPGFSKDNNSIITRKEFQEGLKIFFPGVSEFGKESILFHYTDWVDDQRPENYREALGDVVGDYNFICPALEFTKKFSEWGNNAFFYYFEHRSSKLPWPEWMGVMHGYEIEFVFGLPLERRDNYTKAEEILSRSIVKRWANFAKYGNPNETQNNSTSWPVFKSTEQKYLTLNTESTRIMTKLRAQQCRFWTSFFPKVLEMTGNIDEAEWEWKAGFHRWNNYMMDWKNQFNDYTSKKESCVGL
T2 sequence (P22303 whole entry): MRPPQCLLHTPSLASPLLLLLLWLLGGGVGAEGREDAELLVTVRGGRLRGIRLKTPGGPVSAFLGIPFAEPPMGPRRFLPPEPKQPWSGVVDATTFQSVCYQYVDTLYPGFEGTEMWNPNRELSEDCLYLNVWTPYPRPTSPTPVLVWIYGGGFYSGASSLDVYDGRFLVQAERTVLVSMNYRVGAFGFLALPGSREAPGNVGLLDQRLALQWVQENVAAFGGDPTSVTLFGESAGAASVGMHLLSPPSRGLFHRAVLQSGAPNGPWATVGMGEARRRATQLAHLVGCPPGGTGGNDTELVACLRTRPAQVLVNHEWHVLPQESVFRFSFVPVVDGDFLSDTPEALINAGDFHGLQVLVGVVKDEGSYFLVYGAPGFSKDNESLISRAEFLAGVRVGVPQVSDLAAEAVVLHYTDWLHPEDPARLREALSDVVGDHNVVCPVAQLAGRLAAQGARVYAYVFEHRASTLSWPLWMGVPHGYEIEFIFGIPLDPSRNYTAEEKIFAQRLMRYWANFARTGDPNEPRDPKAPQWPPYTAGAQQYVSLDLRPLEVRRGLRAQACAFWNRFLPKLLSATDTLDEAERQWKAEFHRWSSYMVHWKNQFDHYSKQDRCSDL

Row | Compound | IC50 (Cholinesterase [1]) | LD50 at 14 days [2] | inhibition (Acetylcholinesterase [3]) | inhibition (Cholinesterase [4]) | Activity (Rattus norvegicus [5]) | inhibition [6] | IC50 (Acetylcholinesterase [7]) | IC50 [8] | inhibition [9] | inhibition in vivo at 50 mg/kg (Rattus norvegicus [10])
1 | CC(C)Cc1ccc(C(C)C(=O)O)cc1 (stereo not given) [IBUPROFEN] | < 600 µmol | 630 mg/kg | 61.2% | 35.5% | 35% | 42.5% | 235.11 µmol | < 500 µmol | 11.3% | 45%
2 | O=c1c(O)c(-c2ccc(O)c(O)c2)oc2cc(O)cc(O)c12 [QUERCETIN] | – | – | – | – | – | – | – | 16.96 µmol | 93.2% | –
3 | CC(C)Cc1ccc(C(C)C(=O)NS(=O)(=O)c2ccc(N)cc2)cc1 (stereo not given) | 214.41 µmol | 4050 mg/kg | 47.2% | 65.9% | 8% | 48.4% | < 600 µmol | – | – | 75%
4 | Nc1ccc(S(N)(=O)=O)cc1 [SULFANILAMIDE] | 138.79 µmol | – | 10.2% | 5.19% | 10% | – | – | – | – | 10%
